Source: US20240057638A1, “COMPOSITIONS FOR REDUCING METHANE EMISSION, METHODS FOR IMPROVING THE METABOLIC EFFICIENCY OF RUMINANT ANIMALS AND METHANOGENESIS INHIBITOR ADMINISTRATION” (MOOTRAL INNOVATIONS LIMITED, priority 2020, published 2024)

Test system: Methanococcus maripaludis
Test: Inhibition of methane production by Methanococcus maripaludis culture (pressure drop by manometer after 24 h)
Type: cell-based
Conditions: for % Inhibition Gas: 37° C.
Protocol: For this experiment, bromoform was prepped at 100 mM by adding 8.75 μl bromoform to 991 μl DMSO. This was diluted 10x diluted to generate a 10 mM solution and further diluted to generate 0.12- and 0.156-mM stock solutions. Allicin stock solutions were prepared by adding 48.6 μl allicin to 951.4 μl DMSO to make a 300 mM stock solution and 32.5 μl allicin to 967.5 μl DMSO to make a 200 mM stock solution. The experiment was set up by adding 5 ml of M141 medium (https://www.dsmz.de/microorganisms/medium/pdf/DSMZ_Medium141.pdf) to a screw cap Hungate tube followed by the addition of 5 μl allicin and/or 5 μl bromoform or 10 μl DMSO as follows: • Tube 1: DMSO (10 μl) • Tube 2: Bromoform (5 μl 0.120 mM) (120 nM final)+5 μl DMSO • Tube 3: Bromoform (5 μl 0.156 mM) (156 nM final)+5 μl DMSO • Tube 4: Allicin (5 μl 200 mM) (200 μM final)+5 μl DMSO • Tube 5: Allicin (5 μl 300 mM) (300 μM final)+5 μl DMSO • Tube 6: Bromoform (5 μl 0.120 mM) (120 nM final)+Allicin (5 μl 200 mM) (200 μM final) • Tube 7: Bromoform (5 μl 0.120 mM) (120 nM final)+Allicin (5 μl 300 mM) (300 μM final) • Tube 8: Bromoform (5 μl 0.156 mM) (156 nM final)+Allicin (5 μl 200 mM) (200 μM final) • Tube 9: Bromoform (5 μl 0.156 mM) (156 nM final)+Allicin (5 μl 300 mM) (300 μM final)
After the addition of the test substances, 500 μl of an overnight M. maripaludis culture was added to each reaction tube. Each tube was gassed with 80% H2/20% CO2 to 240 kPa and incubated at 37° C. for 24 h.
After the 24 h incubation the pressure inside the tube was measured using a manometer. Given that 5 moles of H2/CO2 are consumed to generate 1 mole of CH4 the drop in pressure observed was used to calculate the amount of methane by the control and test reactions from which a percent inhibition was calculated.
For this experiment, bromoform was prepped at 100 mM by adding 8.75 μl bromoform to 991 μl DMSO. This was diluted 10× diluted to generate a 10 mM solution and further diluted to generate 0.10- and 0.156-mM stock solutions. The sample was prepared by adding 245 mg NXRH214 powder to 35 ml M141 medium (https://www.dsmz.de/microorganisms/medium/pdf/DSMZ_Medium141.pdf) to generate a 7 mg/ml stock solution. NXRH214 powder is a garlic powder (allicin) and citrus extract (polyphenol flavonoid mix) with a ratio of 93:7, where the flavonoid mix comprises mainly naringin and neohesperidin.

[1] = Methanococcus maripaludis, read-out: % Inhibition Gas

Compound	% Inhibition Gas (Allicin 200 μM with DMSO) [%]	% Inhibition Gas (Allicin 300 μM with DMSO) [%]	inhibition at 0.1 µM [1] [%]	inhibition at 0.156 µM [1] [%]
C=CCS[S@@+]([O-])CC=C (stereo in doubt) [Allicin, allicin]	0	19		
BrC(Br)Br [Bromoform, bromoform]			0	0.5
